Experimental data: patent US9801374B2, “Active compound combinations comprising carboxamide derivatives” (BAYER CROPSCIENCE AG, priority 2012, dated 2017)

Experiments:
Leptosphaeria nodorum = Leptosphaeria nodorum test (wheat) / preventive; format: in vivo, Leptosphaeria nodorum on wheat; details: evaluated 8 days after inoculation
Description: (§1) • Solvent: 49 parts by weight of N,N-dimethylacetamide • Emulsifier: 1 part by weight of alkylaryl polyglycol ether
(§2) To produce a suitable preparation of active compound, 1 part by weight of active compound or active compound combination is mixed with the stated amounts of solvent and emulsifier, and the concentrate is diluted with water to the desired concentration.
(§3) To test for preventive activity, young plants are sprayed with the preparation of active compound or active compound combination at the stated rate of application.
After the spray coating has been dried, the plants are sprayed with a spore suspension of Leptosphaeria nodorum. The plants remain for 48 hours in an incubation cabinet at approximately 20° C. and a relative atmospheric humidity of approximately 100%.
The plants are placed in the greenhouse at a temperature of approximately 22° C. and a relative atmospheric humidity of approximately 80%.
The test is evaluated 8 days after the inoculation. 0% means an efficacy which corresponds to that of the untreated control, while an efficacy of 100% means that no disease is observed.

[1] = test system: Blumeria graminis f.sp. hordei; assay: Blumeria test (barley) / preventive; format: in vivo, Blumeria graminis f.sp. hordei on barley; details: evaluated 7 days after inoculation
Description: as §1, §2, §3
After the spray coating has been dried, the plants are dusted with spores of Blumeria graminis f.sp. hordei.
The plants are placed in the greenhouse at a temperature of approximately 18° C. and a relative atmospheric humidity of approximately 80% to promote the development of mildew pustules.
The test is evaluated 7 days after the inoculation. 0% means an efficacy which corresponds to that of the untreated control, while an efficacy of 100% means that no disease is observed.

## COc1ccccc1C(=O)NS(=O)(=O)c1ccc(C(=O)NC2CC2)cc1 [(D-62), N-{[4-(cyclopropylcarbamoyl)phenyl]-sulfonyl}-2-methoxybenzamide]
Leptosphaeria nodorum; 25 ppm a.i.
  Efficacy in % found: 0%

## O=C(O)CNCP(=O)(O)O [(B-14.1), glyphosate]
[1]; 5 ppm a.i.
  Efficacy in % found: 11%

## CC(C)c1ccc(Cl)cc1CN(C(=O)c1c(C(F)F)nn(C)c1F)C1CC1 [compound A5, N-(5-chloro-2-isopropylbenzyl)-N-cyclopropyl-3-(difluoromethyl)-5-fluoro-1-methyl-1H-pyrazole-4-carboxamide]
[1]; 62.5 ppm a.i.
  Efficacy in % found: 56%
Leptosphaeria nodorum; 31 ppm a.i.
  Efficacy in % found: 50%

## CCOC(=O)C1=NN(c2ccc(Cl)cc2Cl)C(C)(C(=O)OCC)C1 [(D-23), mefenpyr-diethyl]
Leptosphaeria nodorum; 25 ppm a.i.
  Efficacy in % found: 17%

## CP(=O)(O)CCC(N)C(=O)O (stereo not shown) [(B-13.3), glufosinate-ammonium]
[1]; 5 ppm a.i.
  Efficacy in % found: 0%

## CCOC(=O)C1=NOC(c2ccccc2)(c2ccccc2)C1 [(D-19), isoxadifen-ethylen]
Leptosphaeria nodorum; 25 ppm a.i.
  Efficacy in % found: 17%
